Test results reported in patent publication US11795152B2, “Crystal form of tafamidis and preparation method therefor and use thereof” (CRYSTAL PHARMACEUTICAL (SUZHOU) CO., LTD., priority 2019, dated 2023).

Columns and labels:
Format in all cases: physicochemical
[1] = Dissolution profile of tablets in pH6.8 PBS+1% Tween 80; details: tablet 61 mg, paddle 75 rpm, 37° C.
Protocol: The cumulative dissolution was measured at different time in pH6.8 PBS+1% Tween 80 and pH6.8 PBS+3% Tween 80. The dissolution results are presented in Table 24 (FIG. 23) and Table 25 (FIG. 24).
The cumulative dissolution was measured at different time in pH6.8 PBS+1% Tween 80.

[2] = Hygroscopicity by dynamic vapor sorption (DVS); details: 80% RH, 25° C., DVS
Protocol: Dynamic Vapor Sorption (DVS) is measured via a SMS (Surface Measurement Systems Ltd.) intrinsic DVS instrument. Its control software is DVS-Intrinsic control software. Typical parameters for DVS tests are as follows:
Gas and flow rate: N2, 200 mL/min
RH range: 0% RH to 95% RH
The weight gains at each relative humidity were recorded in a cycle of 0-95%-0 RH. The XRPD patterns were collected before and after the DVS test and depicted in FIG. 11.
Description and definition of hygroscopicity (general notice 9103 drug hygroscopicity test guidelines in 2015 edition of Chinese Pharmacopoeia, test at 25° C.+/−1° C., 80% RH. The definition of hygroscopicity in the 9th European Pharmacopoeia 5.11 is in consistent with the Chinese Pharmacopoeia.). • deliquescent: sufficient water is absorbed to form a solution. • very hygroscopic: increase in mass is equal to or greater than 15 percent. • hygroscopic: increase in mass is less than 15 percent and equal to or greater than 2 percent. • slightly hygroscopic: increase in mass is less than 2 percent and equal to or greater than 0.2 percent. • non hygroscopic or almost non hygroscopic: Increase in mass is less than 0.2%.
The weight gains at each relative humidity were recorded in a cycle of 0-95%-0RH. The XRPD patterns were collected before and after the DVS test and depicted in FIG. 22. […] Form CSVI is slightly hygroscopic.
The weight gains at each relative humidity were recorded in a cycle of 0-95%-0RH. The XRPD patterns were collected before and after the DVS test and depicted in FIG. 31.

[3] = Adhesiveness (material sticking to the punch); details: 30 mg, φ8 mm round tooling, 10 KN held for 30 s
Protocol: The punch was weighed and amount of material sticking to the punch was calculated. The compression was repeated twice and the cumulative amount, maximum amount and average amount of material sticking to the punch during the compression were recorded.

[4] = Stability of drug substance on storage (XRPD, HPLC purity); details: for chemical purity during storage: drug substance
Excerpt: Crystalline form and chemical impurity were checked by XRPD and HPLC, respectively.
Crystalline form and purity were checked by XRPD and HPLC, respectively.

[5] = Compressibility (manual tablet press, tensile strength); details: 80 mg, φ6 mm round tooling, 10 KN
Protocol: An ENERPAC manual tablet press was used for tableting. […] Diameter (D) and thickness (L) were tested with a caliper. Hardness (H) was tested with an intelligent tablet hardness tester. Tensile strength of the powder was calculated with the following formula: T=2H/πDL*9.8. Under a certain force, the greater the tensile strength, the better the compressibility.
Diameter (D) and thickness (L) were tested with a caliper. Hardness (H) was tested with an intelligent tablet hardness tester. Tensile strength of the powder was calculated with the following formula: T=2H/πDL*9.8. Under a certain force, the greater the tensile strength, the better the compressibility.

[6] = Stability of Form CSVII drug product on storage; details: 30° C./60% RH
[7] = 40° C./75% RH, Sealed, 3 months
[8] = 60° C./75% RH, Sealed, 2 months

For O=C(O)CCCCC(=O)O.O=C(O)c1ccc2nc(-c3cc(Cl)cc(Cl)c3)oc2c1.O=C(O)c1ccc2nc(-c3cc(Cl)cc(Cl)c3)oc2c1 [Form CSVII], the “Cumulative drug release in pH 6.8 PBS + 1% Tween 80 (%)” value (shortened to “Cumulative drug release … (%)”) ([1]; 0 min) was 0.0%, the “Cumulative drug release … (%)” value ([1]; 5 min) was 9.3% and the “Cumulative drug release … (%)” value ([1]; 10 min) was 15.2%. The “Cumulative drug release … (%)” value ([1]; 15 min) was 19.7%, the “Cumulative drug release … (%)” value ([1]; 20 min) was 23.5% and the “Cumulative drug release … (%)” value ([1]; 30 min) was 29.8%. The “Cumulative drug release … (%)” value ([1]; 45 min) was 37.4%, the “Cumulative drug release … (%)” value ([1]; 60 min) was 43.7% and the “Cumulative drug release … (%)” value ([1]; 90 min) was 52.8%. For the same compound, the “Cumulative drug release … (%)” value ([1]; 120 min) was 60.1%, the “Cumulative drug release … (%)” value ([1]; 150 min) was 68.3% and the Weight gain [2] was 0.04%. For the same compound, the “Average amount (mg) of material sticking to the punch” value [3] was 0.200 mg, the Purity ([4]; 25° C./60% RH, Open, 3 months) was 99.92% and the “Solid Form” value ([4]; 25° C./60% RH, Open, 3 months) was “Form CSVII”. The Purity ([4]; 40° C./75% RH, Open, 3 months) was 99.92%, the “Solid Form” value ([4]; 40° C./75% RH, Open, 3 months) was “Form CSVII” and the Purity [4, 7] was 99.92%. For the same compound, the “Solid Form” value [4, 7] was “Form CSVII”, the Purity [4, 8] was 99.93% and the “Solid Form” value [4, 8] was “Form CSVII”. For the same compound, the Purity ([4]; Initial) was 99.93%, the “Solid Form” value ([4]; Initial) was “Form CSVII” and the “chemical purity during storage” value ([4]; 25° C./60% RH) was “above 99.9%”. The “chemical purity during storage” value ([4]; 40° C./75% RH and 60° C./75% RH) was “above 99.9%”, the Hardness ([5]; 24 hours recovery) was 7.45 kgf and the Tensile strength ([5]; T=2H/πDL*9.8) was 4.02 MPa. The “time for which crystalline state of drug product doesn't change” value [6] was “at least three months”.
